Laboratory results taken from patent US20020173640A1, “ADAM polynucleotides, polypeptides, and antibodies” (Human Genome Sciences, Inc., priority 1999, published 2002).
Like-named read-outs stand apart in the source and are kept apart here.

Assays:
hADAM-19 = target: T1, hADAM-19 (Homo sapiens, UniProt Q9H013); test: Inhibition of α2-M cleavage by hADAM-19 (SDS-PAGE, silver staining); assay type: biochemical
T1 construct: made in house
T1 sequence (Q9H013 26-701 isoform Q9H013-2): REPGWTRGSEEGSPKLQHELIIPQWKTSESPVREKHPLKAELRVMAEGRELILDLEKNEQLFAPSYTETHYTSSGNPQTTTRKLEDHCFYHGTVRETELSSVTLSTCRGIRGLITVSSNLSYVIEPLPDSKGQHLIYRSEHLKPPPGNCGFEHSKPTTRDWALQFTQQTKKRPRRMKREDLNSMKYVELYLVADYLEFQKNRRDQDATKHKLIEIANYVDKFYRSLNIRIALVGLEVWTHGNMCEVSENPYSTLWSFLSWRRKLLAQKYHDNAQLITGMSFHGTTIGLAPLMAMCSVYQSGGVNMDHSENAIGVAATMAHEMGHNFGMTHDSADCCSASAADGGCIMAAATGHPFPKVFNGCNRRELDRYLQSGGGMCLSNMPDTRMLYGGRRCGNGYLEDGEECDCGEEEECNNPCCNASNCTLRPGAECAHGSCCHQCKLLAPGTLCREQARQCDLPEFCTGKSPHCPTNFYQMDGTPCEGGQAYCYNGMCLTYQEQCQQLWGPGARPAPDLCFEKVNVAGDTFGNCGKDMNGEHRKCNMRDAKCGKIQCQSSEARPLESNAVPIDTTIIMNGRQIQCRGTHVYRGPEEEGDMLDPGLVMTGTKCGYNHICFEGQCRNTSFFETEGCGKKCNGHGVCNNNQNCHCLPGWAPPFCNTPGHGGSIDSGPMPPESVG
Description: 20 mM EDTA, 20 rmiM EGTA, 10 mM HgCl2, 1 miM TIMP-1,-2 (TIMP: hADAM-19 molar ratio was 100:1) and three commercial (CALBIOCHEM) small molecule human MMP inhibitors were used to inhibit α2-M cleavage by hADAM-19. […] Briefly, different concentrations of those inhibitors were mixed with 7.5 μl of hADAM-19 (50 μg/ml) in 22.9 μl of 1× HEPES buffer (50 mM HEPES, pH 7.5, 0.2 M NaCl, 10 mM CaCl2, 25 μM ZnCl, and 0.05%Brij-35) and incubated at room temperature (24° C.) for 2-hr, then 7.1 μl of substrate α2-M (0.2 unit/ml) were added and incubated at 37° C. for 20-hr. The reactions were stopped by adding 4× sample bufer and boiled immediately for 5 minutes. After SDS-PAGE, the protein bands were visualized by silver staining.

[1] = system: viruses containing the K103N mutation; details: cited from earlier work
HIV = details: cited from earlier work
[2] = summary statement, concentration not given

## c1cnc2c(c1)ccc1cccnc12 [1,10-phenathroline]
hADAM-19; [2]
  blockage of hADAM-19 proteolytic activity against α2-M: blocked completely

## CC(C)c1nc(COC(N)=O)n(Cc2ccncc2)c1Sc1cc(Cl)cc(Cl)c1 [CAPRAVIRINE]
[1]
  activity against K103N mutants: activity against viruses containing the K103N mutation

## Nc1nc(=O)n([C@@H]2CS[C@H](CO)O2)cc1F [COVIRACIL, emtricitabine]
HIV; greater activity than lamivudine (3TC)
  activity in vitro relative to lamivudine (3TC): 3- to 10 fold

## O=C(O)CN(CCN(CC(=O)O)CC(=O)O)CC(=O)O [EDTA]
hADAM-19
  blockage of hADAM-19 digestion of α2-M: completely blocked
  blockage of hADAM-19 proteolytic activity against α2-M: blocked completely

## O=C(O)CN(CCOCCOCCN(CC(=O)O)CC(=O)O)CC(=O)O [EGTA]
hADAM-19; 20 mM inhibitor
  blockage of hADAM-19 digestion of α2-M: completely blocked
hADAM-19; [2]
  blockage of hADAM-19 proteolytic activity against α2-M: blocked completely

## CC[C@H]1C(=O)Nc2ccc(F)cc2N1C(=O)OC(C)C [GW-420867X]
[1]
  activity against K103N mutants: active against K103N mutants
HIV; greater activity than HBY097
  activity relative to HBY097: 25 fold
